Results published in ChEMBL document CHEMBL1136608, “Azaindoles: moderately basic P1 groups for enhancing the selectivity of thrombin inhibitors” (Bioorg Med Chem Lett, 2003).

What was measured:
[1] = target: Serine protease 1 (Homo sapiens, UniProt P07477); experiment: Inhibition of Trypsin
[2] = target: Prothrombin (Homo sapiens, UniProt P00734); experiment: Inhibition of Thrombin
[3] = Cmax in dog after oral administration at 1 mg/kg; format: ADME, organism-based, Canis lupus familiaris; design: dose 1 mg/kg, route oral; details: in vivo
[4] = Half-life in dog after oral administration at 1 mg/kg; format: ADME, organism-based, Canis lupus familiaris; design: dose 1 mg/kg, route oral; details: in vivo
[5] = Area under curve was determined in dog after oral administration at 1 mg/kg; format: ADME, organism-based, Canis lupus familiaris; design: dose 1 mg/kg, route oral; details: in vivo
[6] = species on record: Homo sapiens; experiment: In vitro concentration required to double the human activated partial thromboplastin time (2x APTT); format: functional
[7] = test system: Canis familiaris; experiment: Cmax in dog after oral administration at 1 mg/kg; Below the level of quantitation; format: ADME, organism-based, Canis lupus familiaris; design: dose 1 mg/kg, route oral; details: in vivo

Chain of Serine protease 1 (P07477 whole entry): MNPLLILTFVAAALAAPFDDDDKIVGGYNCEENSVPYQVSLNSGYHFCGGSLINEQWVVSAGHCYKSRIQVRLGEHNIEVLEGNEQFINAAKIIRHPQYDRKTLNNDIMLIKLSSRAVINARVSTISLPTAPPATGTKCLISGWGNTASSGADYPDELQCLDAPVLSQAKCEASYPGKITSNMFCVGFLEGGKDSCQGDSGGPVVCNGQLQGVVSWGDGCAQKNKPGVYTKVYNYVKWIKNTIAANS

Row | Structure (SMILES) | Ki [1] [µM] | Concentration [6] [µM] | further results
1 | Cc1cnc(NCCc2ccccc2)c(=O)n1CC(=O)NCc1ccc2nccn2c1C | 6.8 | – | –
2 | Cc1cnc(NCCc2ccccn2)c(=O)n1CC(=O)NCc1cnc2[nH]ccc2c1 | 140 | – | Ki [2]: 0.0066 µM; Cmax [3]: 2100 nM; half-life [4]: 2.42 h; AUC [5]: 9.1 µM·h
3 | Cc1cnc(NCCc2ccccc2)c(=O)n1CC(=O)NCc1ccn2ccnc2c1 | 120 | – | Ki [2]: 0.27 µM
4 | Cc1cnc(NCCc2ccccn2)c(=O)n1CC(=O)NCc1c[nH]c2nccc-2c1 | – | 0.95 | –
5 | Cc1cnc(NCCc2ccccn2)c(=O)n1CC(=O)NCc1cc2cc[nH]c2cn1 | 200 | 0.4 | Cmax [3]: 180 nM; AUC [5]: 0.17 µM·h
6 | Cc1cnc(NCCc2ccccc2)c(=O)n1CC(=O)NCc1ccc2[nH]ccc2c1 | > 100 | – | –
7 | Cc1cnc(NCCc2ccccc2)c(=O)n1CC(=O)NCc1cnc2[nH]ccc2c1 | > 100 | – | –
8 | Cc1cnc(NCCc2ccccc2)c(=O)n1CC(=O)NCc1ccc2[nH]cnc2c1 | 2 | – | –
9 | Cc1cnc(NCCc2ccccc2)c(=O)n1CC(=O)NCc1ccc2[nH]ccc2n1 | > 100 | – | –
10 | Cc1cnc(NCCc2ccccc2)c(=O)n1CC(=O)NCc1ccc2cc[nH]c2c1 | > 100 | – | Ki [2]: 0.83 µM
11 | Cc1cnc(NCCc2ccccc2)c(=O)n1CC(=O)NCc1ccc2nccn2c1 | 100 | – | Ki [2]: 0.14 µM
12 | Cc1cnc(NCCc2ccccn2)c(=O)n1CC(=O)NCc1ccc2[nH]ccc2c1 | 290 | – | –
13 | Cc1nc(N)ccc1CNC(=O)Cn1c(C)cnc(NCCc2ccccc2)c1=O [L-375378] | – | 0.41 | Cmax [3]: 5370 nM; half-life [4]: 3.18 h; AUC [5]: 23.1 µM·h
14 | Cc1cnc(NCCc2ccccn2)c(=O)n1CC(=O)NCc1ccc2[nH]ccc2n1 | > 1000 | 0.8 | Cmax [7]: Below the level of quantitation
15 | Cc1cnc(NCCc2ccccc2)c(=O)n1CC(=O)NCc1cc2cc[nH]c2cn1 | 95 | 2.63 | Cmax [3]: 2690 nM; half-life [4]: 3.6 h; AUC [5]: 15.2 µM·h
